These results are taken from PubChem BioAssay (NCI).

Test systems include HCT-116 colon; OVCAR-3 ovarian; NCI-H23 lung; UO-31 renal; CAKI-1 renal; SK-MEL-5 melanoma; SF-539 CNS; UACC-62 melanoma; SW-620 colon; TK-10 renal.
What all share (experiment): NCI-60 cell line screen, 48 h

Each structure is given as a SMILES string. Where “and” joins values, the source holds several entries; their conditions need not be identical. Equal entries are not always repeated.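 Tested at 5 concentrations; 48 h exposure; 96-well plates; endpoints linearly interpolated, else capped at highest concentration. The concentration for 50% growth inhibition is given as GI50. TGI marks complete inhibition of growth.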

As to `Cc1ccc(S(=O)(=O)Nc2nc3ccccc3nc2Nc2ccc3nsnc3c2)cc1`, the GI50 with HCT-116 colon was 3.52 µM; in the test with OVCAR-3 ovarian, 3.23 µM and 3.65 µM; in the test with NCI-H23 lung it was 2.78 µM and 2.93 µM; in the test with UO-31 renal, 1.94 µM and 1.58 µM; in the test with CAKI-1 renal, 3.36 µM and 2.33 µM; with SK-MEL-5 melanoma, 2.65 µM and 1.88 µM. Moreover, the GI50 with SF-539 CNS was 4.9 µM and 5.13 µM; in the test on UACC-62 melanoma it was 1.81 µM and 2.02 µM; in the test on SW-620 colon, 7.95 µM and 5.22 µM; in the test on TK-10 renal, 5.18 µM and 3.14 µM. Also, the TGI in the test with HCT-116 colon is 15.4 µM and > 100 µM; in the test with OVCAR-3 ovarian, 14.8 µM and > 100 µM; in the test with NCI-H23 lung it was 44.5 µM and > 100 µM; in the test with UO-31 renal it was 19 µM and 6.49 µM; with CAKI-1 renal it was greater than 100 µM; in the test with SK-MEL-5 melanoma, 11.6 µM and 7.46 µM. Besides, the TGI in the test on SF-539 CNS is 61.3 µM and > 100 µM; in the test on UACC-62 melanoma it was 10.4 µM and > 28.2 µM; in the test with SW-620 colon it was greater than 100 µM; in the test with TK-10 renal, greater than 100 µM.

For `Cc1ccc(C2=C(c3ccccc3)C(Br)(c3ccccc3)C(c3ccccc3)=C2c2ccc(C)cc2)cc1`, the TGI with HCT-116 colon, with OVCAR-3 ovarian, with NCI-H23 lung, in the test on UO-31 renal, with CAKI-1 renal and with SK-MEL-5 melanoma was greater than 100 µM in each case. The TGI in the test with SF-539 CNS, with UACC-62 melanoma, with SW-620 colon and in the test with TK-10 renal was greater than 100 µM throughout.

With `O=C1CCCC1NC(=O)C(F)(F)F` (stereo not given), the TGI with HCT-116 colon, in the test with OVCAR-3 ovarian, in the test on NCI-H23 lung, in the test with UO-31 renal, with CAKI-1 renal and in the test with SK-MEL-5 melanoma was greater than 100 µM throughout. The TGI in the test on SF-539 CNS, with UACC-62 melanoma, with SW-620 colon and in the test with TK-10 renal was greater than 100 µM in each case.

For `COc1ccc2nc(C)cc(Nc3ccccc3O)c2c1`, the GI50 is 15 µM in the test with HCT-116 colon; 37.2 µM in the test on OVCAR-3 ovarian; 38.5 µM in the test on NCI-H23 lung; 21.2 µM with UO-31 renal; 36.1 µM in the test with CAKI-1 renal; 15.4 µM with SK-MEL-5 melanoma. The GI50 in the test on SF-539 CNS is 19.2 µM; in the test on UACC-62 melanoma, 17.9 µM; with SW-620 colon, 26.7 µM; in the test with TK-10 renal, 50.6 µM. Also, the TGI in the test with HCT-116 colon was 82 µM; with OVCAR-3 ovarian, greater than 100 µM; with NCI-H23 lung, greater than 100 µM; in the test with UO-31 renal, greater than 100 µM; with CAKI-1 renal it was greater than 100 µM; with SK-MEL-5 melanoma, 30.4 µM. Further, the TGI with SF-539 CNS was 42.2 µM; in the test on UACC-62 melanoma it was 39.5 µM; in the test on SW-620 colon, greater than 100 µM; with TK-10 renal it was greater than 100 µM.

`N#CC1=C(N)Oc2c(sc3c(F)cccc23)C1c1ccc(F)cc1` (stereo not given): the GI50 was 0.492 µM with HCT-116 colon; 0.363 µM with OVCAR-3 ovarian; 1.45 µM in the test on NCI-H23 lung; 1.27 µM in the test on UO-31 renal; 0.508 µM with CAKI-1 renal; 0.657 µM in the test on SK-MEL-5 melanoma. The GI50 with SF-539 CNS was 0.447 µM; in the test with UACC-62 melanoma, 0.551 µM; in the test with SW-620 colon, 0.531 µM; in the test on TK-10 renal, 8.24 µM. Further, the TGI was 13 µM in the test on HCT-116 colon; 1.88 µM with OVCAR-3 ovarian; 14.8 µM in the test on NCI-H23 lung; 12.1 µM in the test on UO-31 renal; 15.9 µM with CAKI-1 renal; 14.3 µM in the test with SK-MEL-5 melanoma. Further, the TGI with SF-539 CNS amounted to 2.67 µM; with UACC-62 melanoma, 14.9 µM; in the test on SW-620 colon, 16.3 µM; with TK-10 renal it was 25.3 µM.

Take `CS(=O)(=O)Nc1cc(-c2ccc3ncnc(Nc4ccc5c(cnn5Cc5ccccc5F)c4)c3c2)cnc1Cl`: the GI50 in the test on HCT-116 colon was 2.08 µM; with OVCAR-3 ovarian it was 0.795 µM; with NCI-H23 lung, 2.81 µM; with UO-31 renal, 3.23 µM; with CAKI-1 renal, 1.71 µM; in the test on SK-MEL-5 melanoma, 1.76 µM. For the same compound, the GI50 in the test with SF-539 CNS was 1.09 µM; in the test on UACC-62 melanoma, 1.47 µM; with SW-620 colon, 1.94 µM; in the test with TK-10 renal it was 1.28 µM. The TGI in the test on HCT-116 colon is greater than 33.7 µM; in the test with OVCAR-3 ovarian, 3.13 µM; in the test on NCI-H23 lung it was greater than 100 µM; in the test with UO-31 renal it was greater than 100 µM; in the test with CAKI-1 renal, 5.62 µM; with SK-MEL-5 melanoma it was 3.28 µM. The TGI was 4.9 µM in the test on SF-539 CNS, 5.37 µM with UACC-62 melanoma, greater than 35.9 µM with SW-620 colon and 5.44 µM with TK-10 renal.

For the compound `CC1/C(=N/Nc2ccc([N+](=O)[O-])cc2)CC2C3(C)CCC2(C(C)C(=O)O)C(=O)C13` (stereo not given), the GI50 is 6.97 µM with HCT-116 colon; 1.72 µM in the test with OVCAR-3 ovarian; 29.1 µM in the test on NCI-H23 lung; 4.31 µM in the test with UO-31 renal; 5.95 µM in the test on CAKI-1 renal; 11.4 µM in the test on SK-MEL-5 melanoma. Moreover, the GI50 was 5.44 µM with SF-539 CNS, 6.51 µM in the test on UACC-62 melanoma, 49.4 µM with SW-620 colon and 9.98 µM in the test with TK-10 renal. The TGI in the test with HCT-116 colon, in the test with OVCAR-3 ovarian, with NCI-H23 lung, with UO-31 renal, in the test on CAKI-1 renal and with SK-MEL-5 melanoma was greater than 100 µM in each case. Also, the TGI with SF-539 CNS, with UACC-62 melanoma, in the test on SW-620 colon and with TK-10 renal was greater than 100 µM throughout.

For `O=C1C(=O)c2ccccc2C(O)=C1CCCCCCCCC1CCCCC1`, the TGI is 12.3 µM in the test with HCT-116 colon; 26.5 µM in the test on OVCAR-3 ovarian; 14.5 µM with NCI-H23 lung; 20.6 µM in the test with UO-31 renal; 57 µM in the test with CAKI-1 renal; 23.7 µM with SK-MEL-5 melanoma. For the same compound, the TGI was 22.4 µM in the test with SF-539 CNS, 18.4 µM with UACC-62 melanoma, 17.7 µM with SW-620 colon and 38.7 µM in the test with TK-10 renal.

For the compound `COC(=O)c1cc2oc(/C=C3\SC(=S)N(NC(C)=O)C3=O)cc2n1Cc1ccccc1`, the GI50 with HCT-116 colon was 7.62 µM; in the test with OVCAR-3 ovarian, 0.53 µM; with NCI-H23 lung, 7.12 µM; in the test with UO-31 renal it was 8.88 µM; in the test on CAKI-1 renal, 2.42 µM; in the test on SK-MEL-5 melanoma, 2.08 µM. Besides, the GI50 with SF-539 CNS was 2.79 µM; with UACC-62 melanoma, 8.91 µM; in the test with SW-620 colon, 8.35 µM; in the test on TK-10 renal, 6.14 µM. The TGI was 14.3 µM with HCT-116 colon; 2.66 µM in the test on OVCAR-3 ovarian; 16.8 µM with NCI-H23 lung; greater than 50 µM with UO-31 renal; 7.79 µM with CAKI-1 renal; 10.7 µM in the test with SK-MEL-5 melanoma. The TGI in the test on SF-539 CNS came out at 14 µM; with UACC-62 melanoma it was 16.6 µM; with SW-620 colon, 39 µM; with TK-10 renal, 15.5 µM.

For the compound `CC1(C)C2C/C(=C\c3ccccc3)C(=O)C1C2` (stereo not given), the TGI in the test with HCT-116 colon, in the test on OVCAR-3 ovarian, in the test on NCI-H23 lung, in the test with UO-31 renal, in the test on CAKI-1 renal and in the test with SK-MEL-5 melanoma was greater than 100 µM throughout. The TGI in the test with SF-539 CNS, in the test with UACC-62 melanoma, with SW-620 colon and in the test on TK-10 renal was greater than 100 µM each time.

With `CC1=C(C(=O)Nc2ccc(F)c(Cl)c2)C(c2cccc(Oc3ccccc3)c2)NC(=O)N1` (stereo not given), the GI50 was 12.2 µM in the test with HCT-116 colon; 20.7 µM in the test on OVCAR-3 ovarian; 15.4 µM in the test with NCI-H23 lung; 12.2 µM in the test on UO-31 renal; 18.6 µM with CAKI-1 renal; 13.2 µM with SK-MEL-5 melanoma. Also, the GI50 was 14.6 µM with SF-539 CNS, 12.4 µM with UACC-62 melanoma, 18.2 µM in the test with SW-620 colon and 8.67 µM with TK-10 renal. Also, the TGI in the test with HCT-116 colon turned out to be 24.6 µM; in the test with OVCAR-3 ovarian, 57.3 µM; in the test with NCI-H23 lung, 28.8 µM; in the test with UO-31 renal it was 26 µM; in the test with CAKI-1 renal, 38.8 µM; in the test on SK-MEL-5 melanoma, 26.5 µM. In addition, the TGI was 28.3 µM in the test with SF-539 CNS, 24.8 µM in the test with UACC-62 melanoma, 38.2 µM with SW-620 colon and 21.7 µM with TK-10 renal.

For `C=C1CC[C@@H]2[C@](C)(COC(C)=O)[C@H](OC(C)=O)CC[C@@]2(C)[C@@H]1C/C=C1/C(=O)OC[C@H]1OC(C)=O`, the GI50 is 1.45 µM in the test on HCT-116 colon; 2.17 µM with OVCAR-3 ovarian; 6.22 µM in the test on NCI-H23 lung; 1.91 µM in the test on UO-31 renal; 6.67 µM with CAKI-1 renal; 9.5 µM with SK-MEL-5 melanoma. For the same compound, the GI50 is 1.7 µM in the test with SF-539 CNS, 3.37 µM in the test on UACC-62 melanoma, 2.29 µM in the test on SW-620 colon and 3.81 µM in the test with TK-10 renal. Besides, the TGI in the test on HCT-116 colon amounted to 2.98 µM; in the test with OVCAR-3 ovarian, 4.21 µM; in the test with NCI-H23 lung, 23 µM; with UO-31 renal, 3.89 µM; in the test on CAKI-1 renal it was 19.6 µM; in the test on SK-MEL-5 melanoma it was 22.4 µM. Also, the TGI in the test with SF-539 CNS turned out to be 3.22 µM; in the test on UACC-62 melanoma it was 13.5 µM; in the test with SW-620 colon it was 5.85 µM; in the test with TK-10 renal, 13.3 µM.

Consider `CC12CC3CC(C1)CC(N=[N+]=[N-])(C3)C2`, for which the TGI in the test on HCT-116 colon, with OVCAR-3 ovarian, in the test on NCI-H23 lung, in the test on UO-31 renal, with CAKI-1 renal and with SK-MEL-5 melanoma was greater than 100 µM in each case. The TGI in the test on SF-539 CNS, in the test with UACC-62 melanoma, in the test on SW-620 colon and in the test with TK-10 renal was greater than 100 µM throughout.
